Assay results: PMC9084902, “Low-Molecular Weight Protamine Overcomes Chondroitin Sulfate Inhibition of Neural Regeneration” (Frontiers in Cell and Developmental Biology, 2022)
“Also recorded” adds a separate entry of the source.

What was measured:
[1] = test system: mouse cervical hemicontusion model; test: locomotor activity in open field, C5 hemicontusion, subcutaneous delivery; type: in vivo, C57BL6/NHsd mouse; conditions: 15 min open field, 16 µg s.c. daily 49 days; n = 7–13
Procedure: (§1) The effectiveness of systemically delivered LMWP in treatment of spinal cord trauma was tested in the cervical hemicontusion model (Figure 1B). Baseline behavior was assessed 1 week before the trauma surgery, and the results were used for balanced distribution of animals to the 3 experimental groups (“sham”, “trauma + PBS” and “trauma + LMWP”). Each housing cage contained animals from all three groups. Subcutaneous injections to the back area were started on the next day after the trauma and continued daily for 49 days. LMWP was injected subcutaneously at the 16 µg dose in 200 µl of sterile PBS. The groups “sham” and “trauma + PBS” got the same volume of PBS. Behavioral assessment was started 2 weeks after the trauma and finished at the week 12.
To evaluate the locomotor activity the animals were released to the corner of a transparent plexiglas chamber (30 cm × 30 cm, MedAssiociates, St.Albans,VT; illumination about 100lx) for 15 min. The travelled distance and the time spent in vertical activity (exploratory rearings) were analyzed with the Activity Monitor v5.1 software (Med Associates, St. Albans, VT).

[2] = test system: NF200+ fibers in trauma hemisphere of spinal cord; test: NF200 immunohistochemistry, C5 hemicontusion, subcutaneous delivery; type: in vivo, C57BL6/NHsd mouse; conditions: 16 µg s.c. daily 49 days
Procedure: as §1
The samples for immunohistochemistry (IHC) were taken from all animals tested in the hemicontusion study with subcutaneous 7 weeks treatment (Figure 1B) at the end of the experiment at 12 weeks (Figure 1B). The cervical spinal cord segments were sectioned into 40 microns thick transverse sections from tissue blocks (samples embedded into solid OCT compound by freezing with dry ice) by using microtome (Leica CM3050 S). Few spinal cord samples were excluded from the study due to technical problems in spinal cord dissection or sectioning procedures, and the total amount of 11 spinal cords of the “trauma + PBS” and 7 spinal cords of the “trauma + LMWP” group were analyzed. Every fourth section per animal was chosen for IHC neurofilament staining making the section interval […]. The sections were stained with primary antibodies against NF200 (ab8135, Abcam, 1:500) in blocking buffer (1xTBS with 0.5% TX-100 and with 3%BSA) and AlexaFluor 594 (REF A11037, Invitrogen) secondary antibodies at the dilution 1:400 in TBS-T (1xTBS with 0.5% TX-100) on microscope slides. The washings prior to and between the stainings were done with TBS-T, whereas the final wash before mounting with Vectastain mounting medium with DAPI, was done by using reverse osmose water. […]

hippocampal neurons [3] = test: neurite outgrowth on precoated plastic without aggrecan, hippocampal neurons; type: cell-based, Wistar rat; conditions: precoated 10 μg/ml on plastic, no aggrecan, 2 days; about 70 neurons/replicate; p < 0.0001, n = 7
Procedure: (§2) The cortex or hippocampus were obtained from 17 days-old Wistar rat embryos and transferred to ice-cold preparation solution. Neurons were further isolated exactly as described earlier in Sahu’s publication ([Sahu et al., 2019]). Primary rat cortical or hippocampal neurons (E17 Wistar rats) were cultured in 96-well plates at the density of 20000 cells/well in Neurobasal medium supplemented with B27 serum substitute, penicillin, streptomycin and L-glutamate for 2 days in vitro (DIV). The plates were precoated with aggrecan (5 ug/ml, 150 µl/well). Protamine or protamine peptides were added to the culture medium at different concentrations. To analyze the effect of protamine or its fragment on neurite outgrowth, the plates were coated with 10 μg/ml of protamine or LMWP. For the experiment with chondroitinase, the aggrecan-coated plates were treated with chondroitinase ABC (Amsbio AMS. E1028, lot CF0029) for 4 h followed by 2 times washing with PBS before cell plating, and the cell culture imaging was carried out after 3 DIV incubation with 4 uM LMWP added to the medium. Neurite outgrowth was imaged with phase contrast microscopy (Olympus IX70 microscope and Retiga 2000R digital camera) using both x10 and x20 objectives. […] Neurite length was measured with ImageJ software and averaged from 2 to 3 independent experiments with 1–2 technical replicas in each independent experiment.

hippocampal neurons [4] = test: neurite outgrowth on aggrecan substrate, hippocampal neurons; type: cell-based, Wistar rat; conditions: 10 μg/ml, n = 3
Procedure: The cortex or hippocampus were obtained from 17 days-old Wistar rat embryos and transferred to ice-cold preparation solution. Neurons were further isolated exactly as described earlier in Sahu’s publication ([Sahu et al., 2019]). Primary rat cortical or hippocampal neurons (E17 Wistar rats) were cultured in 96-well plates at the density of 20000 cells/well in Neurobasal medium supplemented with B27 serum substitute, penicillin, streptomycin and L-glutamate for 2 days in vitro (DIV). The plates were precoated with aggrecan (5 ug/ml, 150 µl/well). Protamine or protamine peptides were added to the culture medium at different concentrations. To analyze the effect of protamine or its fragment on neurite outgrowth, the plates were coated with 10 μg/ml of protamine or LMWP. For the experiment with chondroitinase, the aggrecan-coated plates were treated with chondroitinase ABC (Amsbio AMS. E1028, lot CF0029) for 4 h followed by 2 times washing with PBS before cell plating, and the cell culture imaging was carried out after 3 DIV incubation with 4 uM LMWP added to the medium. Neurite outgrowth was imaged with phase contrast microscopy (Olympus IX70 microscope and Retiga 2000R digital camera) using both x10 and x20 objectives. Processes of neurons over the diameter of the neuronal soma were interpreted as neurites. Neurite length was measured with ImageJ software and averaged from 2 to 3 independent experiments with 1–2 technical replicas in each independent experiment.

[5] = test system: mouse cervical hemisection model; test: vertical screen test, C5 hemisection, ICV delivery; type: in vivo, C57BL6/NHsd mouse; conditions: n = 5–10
Procedure: (§3) The mouse was placed on the brink of a horizontal wire screen (25 × 22 cm, diameter of wires 2 mm spaced at 1 cm) faced to edge. Immediately after that the screen was turned vertically to place the mouse to the upside down position at the lower edge. The time that the animal needed to climb to the upper edge was measured during 1 min. If the animal was not able to climb up or fell down from the screen the maximum time 60 s was marked as the climbing time. The average parameter of three subsequent trials repeated with at least 1 min interval was used for data analysis.

[6] = test system: mouse cervical hemicontusion model; test: vertical screen test, C5 hemicontusion, ICV delivery; type: in vivo, C57BL6/NHsd mouse; conditions: n = 6–11
Procedure: as §3

cortical neurons = test: neurite outgrowth on chondroitinase ABC-treated aggrecan substrate, cortical neurons; type: cell-based, Wistar rat; conditions: ChABC 4 h, 4 µM LMWP in medium, 3 DIV; p = 0.012, unpaired t-test, n = 6; Figure 5B
Procedure: as §2

VSRRRRRRGGRRRR [LMWP, low-molecular weight protamine]
general locomotor activity [1]: did not affect general locomotor activity
NF200+ signal area near trauma epicenter versus PBS ([2]; 60 µm rostral, p = 0.0064, no similar trend in the sections around): significant difference of the NF200+ signal area in one section level localized almost in the middle of the trauma epicenter
area of NF200+ signal on trauma periphery versus PBS ([2]; about ±400 µm from epicenter: 400 µm rostral p = 0.0021, −400 µm caudal p = 0.0346, Mann-Whitney, n = 7–11): increased the area of the NF200+ signal in the section levels located on the trauma periphery
NF200+ fibers (%) in trauma hemisphere, LMWP versus control group ([2]; week 12, n = 7–11): statistically significant group difference between the LMWP-treated mice and the control mice in NF200+ fibers (%)
total neurite length versus uncoated control (hippocampal neurons [3]): increased the total neurite length as compared to the parallel control cultures
reversal of the inhibitory effect of aggrecan on neurite outgrowth (comparison among fragments) (hippocampal neurons [4]; hippocampal neurons (E17 rat), 2 days on aggrecan, precoated with aggrecan or soluble in medium, about 70 neurons/replicate, normalized to control, Figure 2L): more effective in reversing the inhibitory effect of aggrecan than the 22 amino acid fragment or the full-length protamine
length of the longest neurite, versus uncoated control (hippocampal neurons [4]; precoated with aggrecan, 2 days, 10 neurons per condition per experiment, Supplementary Figure S1B,E): slightly reduces the length of the longest neurite
increase in number of branches (hippocampal neurons [4]; precoated with aggrecan, 2 days, 10 neurons per condition per experiment, Supplementary Figure S1C,F): 3 fold
total neurite length (hippocampal neurons [4]; precoated with aggrecan, 2 days, Figure 2 and Supplementary Figure S1A,D): increase in the total neurite length
climbing time in vertical screen, time course ([5]; ICV LMWP 4 µl of 1 mg/ml daily, 6 days from day 3, weeks 2-9): progressively reduced the climbing time
climbing time difference versus PBS-treated group ([5]; ICV LMWP, week 9, p = 0.0304, Kruskal-Wallis with Dunn's): reached a statistically significant level at the week 9 after the trauma
vertical climbing test, time course ([6]; ICV LMWP 4 µl of 1 mg/ml daily, 6 days from day 3): progressive improvement in the vertical climbing test; also recorded: progressively improve the climbing function in the vertical screen test starting from the week 3 after the trauma induction
climbing time versus sham after second post-trauma week ([6]; ICV LMWP, week 3 p = 0.1508, week 4 p = 0.1311, week 5 p = 0.6967, PBS group differed from sham until week 5): did not reveal a significant difference after the second post-trauma week
effect of CS digestion of aggrecan by chondroitinase ABC on LMWP-induced neurite outgrowth (cortical neurons): significantly decreased the neurite outgrowth-promoting effect of LMWP; also recorded: abolished the activity of LMWP to enhance neurite outgrowth
